Measured values: article PMC9814779, “A triple farnesoid X receptor and peroxisome proliferator-activated receptor α/δ activator reverses hepatic fibrosis in diet-induced NASH in mice” (Communications Chemistry, 2020)

Test system: HEK293T and U2OS cells
Assay: Multiplex high-content live-cell toxicity assay
Assay type: cell-based
Conditions: seven concentrations between 100 nM and 100 µM; 2, 12 and 24 h
Procedure: Before proof-of-concept in vivo evaluation, we profiled stability and cytotoxicity of the triple modulator 41 in vitro. […] To determine cytotoxicity, we employed a multiplex high-content life-cell imaging screen[24] on HEK293T and U2OS cells. For this, the cells were treated with fluorescent probes to detect Annexin V as apoptosis marker (Annexin V Alexa488), dead cells (Yo-Pro3), and DNA/nucleus (Hoechst33342). Cells were then incubated with 41, OCA, or elafibranor at seven concentrations between 100 nM and 100 µM, and cell health was determined by fluorescence imaging after 2, 12, and 24 h (Fig. 6g–i and Supplementary Fig. 5).
Supplementary Methods for in Vitro Characterization
Cytotoxicity was assessed in a high content screen on two different cell lines, HEK293T (ATCC® CRL-1573™) and U2OS (ATCC®HTB-96™), essentially as described previously6. In brief, cells were cultured in DMEM plus L-Glutamine (high glucose) supplemented with 10 % FBS (Gibco) and Penicillin/Streptomycin (Gibco). […]
After 2 h, 12 h and 24 h, cellular shape and fluorescence was analyzed on an automated, high-content confocal microscope (CQ1, Yokogawa). […]
50 ms, 40%; bright field, 300ms, 100% transmission, one centered field per well, 7 z stacks per well with 55 µm spacing. Images were analyzed with the Pathfinder software (Yokogawa). Cells were detected and gated as previously described6. […]
The solubilized test compound (5 μL, final concentration 10 μM in phosphate buffer (0.1 M, pH 7.4)) was preincubated at 37 °C in 432 μL of phosphate buffer (0.1 M, pH 7.4) together with a 50 μL NADPH regenerating system (30 mM glucose-6-phosphate, 4 U/mL glucose-6-phosphate dehydrogenase, 10 mM NADP, 30 mM MgCl2). […] The supernatants were analyzed and test compound was quantified by HPLC: mobile phase: MeOH 83%/H2O 17%/formic acid 0.1%; flow-rate: 1 mL/min; stationary phase: MultoHigh Phenyl phase, 5 μm, 250×4, precolumn, phenyl, 5 μm, 20×4; detection wavelength: 330 and 254 nm; injection volume: 50 μL. […]

SMILES | cytotoxicity (cell health, apoptosis, necrosis, lysis)
CC[C@H]1[C@@H](O)[C@@H]2[C@H](CC[C@]3(C)[C@@H]([C@H](C)CCC(=O)O)CC[C@@H]23)[C@@]2(C)CC[C@@H](O)C[C@@H]12 [OCA, 6α-ethylchenodeoxycholic acid, reference compound] | non-toxic up to 100 µM concentration over 24 h
CC(C)(C)c1ccc(C(=O)Nc2cccc(CCC(=O)O)c2)c(NC(=O)c2ccc(-c3ccco3)cc2)c1 [compound 41, 3-(3-[4-{tert-Butyl}-2-{4-(2-furyl)}benzamido]phenyl)propanoic acid] | no notable toxic effects up to high 100 µM concentration
